Key:
[1] = Rapamycin stability in solution; assay type: physicochemical; settings: known concentration solutions at 37° C. for 24 hours
Method: Rapamycin stability was evaluated by sampling known concentration solutions at 37° C. for 24 hours.

Oral Lichen Planus = settings: cited from earlier work

Q: For `CO[C@H]1C[C@@H]2CC[C@@H](C)[C@@](O)(O2)C(=O)C(=O)N2CCCC[C@H]2C(=O)O[C@H]([C@H](C)C[C@@H]2CC[C@@H](O)[C@H](OC)C2)CC(=O)[C@H](C)/C=C(\C)[C@@H](O)[C@@H](OC)C(=O)[C@H](C)C[C@H](C)/C=C/C=C/C=C/1C` [Rapamycin], which Rapamycin stability [1] is on record?
A: The Rapamycin stability was “No stability problems were observed”.

Q: And the “Local side effect after first application” value (Oral Lichen Planus; direct topical application to the diseased regions)?
A: Its value is “tingling or burning sensations were encountered”.

Q: What about the Blood levels (Oral Lichen Planus; direct topical application) of the same compound?
A: The Blood levels was “negligible”.

Q: And the Systemic adverse effects (Oral Lichen Planus; direct topical application)?
A: Its Systemic adverse effects is “no systemic adverse effects were encountered”.

Source: patent publication US10485792B2, “Sustained release delivery systems for the prevention and treatment of head and neck cancers” (HADASIT MEDICAL RESEARCH SERVICES & DEVELOPMENT LIMITED, priority 2009, dated 2019)
